Experimental data as given in patent US20260217706A1, “HETEROCYCLIC COMPOUNDS, PREPARATION METHOD THEREFOR AND USE THEREOF” (GUANGZHOU YUFAN NANTU BIOTECHNOLOGIES CO., LTD, priority 2023, published 2026).

Assays:
[1] = system: anti-CD3 activated human PBMCs; assay: Effect of compounds on the level of IL-2 secretion by anti-CD3 activated human PBMCs (IL-2 ELISA); assay type: cell-based; settings: compound concentration at which fold change in IL-2 = 5; hPBMCs, CD3 antibody 2 μg/mL, 48 h, compound from 3 μM
Summary of the method: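 Human PBMCs were preincubated 1 h, then exposed to compound (10 points, 3-fold from 3 μM final) with anti-CD3 at 2 μg/mL for 48 h at 37° C. Supernatant IL-2 was measured by ELISA as fold change over DMSO.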

CBL-B protein = CBL-B protein (Homo sapiens, UniProt Q13191); assay: CBL-B binding experiment (Streptavidin-Tb cryptate / Ligand L1 displacement); settings: 8 nM CBL-B protein, 25° C., 60 minutes; Ki=Relative IC50/2
CBL-B protein, sequence (Q13191 whole entry): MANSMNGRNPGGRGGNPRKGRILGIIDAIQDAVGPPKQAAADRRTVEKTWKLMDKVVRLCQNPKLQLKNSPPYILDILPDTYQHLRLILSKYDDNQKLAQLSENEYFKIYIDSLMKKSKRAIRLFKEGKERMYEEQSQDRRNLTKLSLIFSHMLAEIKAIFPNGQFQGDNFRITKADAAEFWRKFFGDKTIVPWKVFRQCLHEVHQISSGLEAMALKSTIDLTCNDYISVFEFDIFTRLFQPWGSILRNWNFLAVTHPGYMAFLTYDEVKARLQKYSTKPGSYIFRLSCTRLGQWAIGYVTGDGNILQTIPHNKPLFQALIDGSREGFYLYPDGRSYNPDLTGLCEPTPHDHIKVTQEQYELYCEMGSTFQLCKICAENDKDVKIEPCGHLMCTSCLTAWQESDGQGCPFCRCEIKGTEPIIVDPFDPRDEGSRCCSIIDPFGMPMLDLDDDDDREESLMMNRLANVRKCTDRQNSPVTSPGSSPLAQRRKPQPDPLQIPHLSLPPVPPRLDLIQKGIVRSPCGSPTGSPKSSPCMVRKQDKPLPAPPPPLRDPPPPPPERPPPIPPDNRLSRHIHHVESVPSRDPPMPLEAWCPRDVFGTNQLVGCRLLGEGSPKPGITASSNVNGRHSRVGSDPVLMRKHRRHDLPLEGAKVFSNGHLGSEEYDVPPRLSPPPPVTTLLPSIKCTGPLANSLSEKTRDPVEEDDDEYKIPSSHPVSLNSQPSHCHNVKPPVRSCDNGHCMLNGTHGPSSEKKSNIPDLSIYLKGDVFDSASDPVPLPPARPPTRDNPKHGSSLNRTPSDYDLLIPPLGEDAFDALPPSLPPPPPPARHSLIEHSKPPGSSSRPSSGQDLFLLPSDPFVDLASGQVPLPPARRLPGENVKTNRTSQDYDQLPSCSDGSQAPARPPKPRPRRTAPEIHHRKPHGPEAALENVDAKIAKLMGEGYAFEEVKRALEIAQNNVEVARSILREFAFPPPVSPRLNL
Summary of the method: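 Compounds in a 10-point DMSO series met 8 nM CBL-B protein in HEPES pH 7.5/NaCl/Triton/TCEP/BSA buffer at 25° C. for 60 min. A further 60 min at room temperature preceded the luminescence read, normalised to no-protein and DMSO wells. Ki was taken as relative IC50 divided by 2.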

| Ki (CBL-B protein) | SMILES | IL-2 CFC=5/nM [1] |
| --- | --- | --- |
| < 50 nM | CO[C@H]1C[C@@](c2cccc(-n3cc(C(F)(F)F)c4cc(CN5CCCC6(CC6)C5)[nH]c4c3=O)c2)(c2nncn2C)C1 [Compound T147, 2-((5-azaspiro[2.5]octan-5-yl)methyl)-6-(3-((1s,3s)-3-methoxy-1-(4-methyl-4H-1,2,4-triazol-3-yl)cyclobutyl)phenyl)-4-(trifluoromethyl)-1,6-dihydro-7H-pyrrolo[2,3-c]pyridin-7-one] | <500 nM |
| < 50 nM | CCN(Cc1cc2c(C(F)(F)F)cn(-c3cccc([C@]4(c5nncn5C)C[C@@H](OC)C4)c3)c(=O)c2[nH]1)CC(C)C [Compound T149, 2-((ethyl(isobutyl)amino)methyl)-6-(3-((1s,3s)-3-methoxy-1-(4-methyl-4H-1,2,4-triazol-3-yl)cyclobutyl)phenyl)-4-(trifluoromethyl)-1,6-dihydro-7H-pyrrolo[2,3-c]pyridin-7-one] | <500 nM |
| < 50 nM | CO[C@H]1C[C@](c2cccc(-n3cc(C(F)(F)F)c4cc(CNCCC5CC5)[nH]c4c3=O)c2)(c2nncn2C)C1 [Compound T154, 2-(((2-cyclopropylethyl)amino)methyl)-6-(3-((1r,3r)-3-methoxy-1-(4-methyl-4H-1,2,4-triazol-3-yl)cyclobutyl)phenyl)-4-(trifluoromethyl)-1,6-dihydro-7H-pyrrolo[2,3-c]pyridin-7-one] | <500 nM |
| < 50 nM | CO[C@H]1C[C@](c2cccc(-n3cc(C(F)(F)F)c4cc(CN5CCCC(C(F)F)C5)[nH]c4c3=O)c2)(c2nncn2C)C1 (stereo partly shown) [Compound T156, 2-((3-(difluoromethyl)piperidin-1-yl)methyl)-6-(3-((1r,3r)-3-methoxy-1-(4-methyl-4H-1,2,4-triazol-3-yl)cyclobutyl)phenyl)-4-(trifluoromethyl)-1,6-dihydro-7H-pyrrolo[2,3-c]pyridin-7-one] | <500 nM |
| < 50 nM | Cn1cnnc1[C@]1(c2cccc(-n3cc(C(F)(F)F)c4cc(CN5CCCC(C(F)F)C5)[nH]c4c3=O)c2)C[C@H](C)C1 (stereo partly shown) [Compound T157, 2-((3-(difluoromethyl)piperidin-1-yl)methyl)-6-(3-((1s,3s)-3-methyl-1-(4-methyl-4H-1,2,4-triazol-3-yl)cyclobutyl)phenyl)-4-(trifluoromethyl)-1,6-dihydro-7H-pyrrolo[2,3-c]pyridin-7-one] | <500 nM |
| < 50 nM | C[C@H](NCc1cc2c(C(F)(F)F)cn(-c3cccc([C@]4(c5nncn5C)C[C@@H](C)C4)c3)c(=O)c2[nH]1)C(C)(C)C [Compound T158, 2-((((S)-3,3-dimethylbutan-2-yl)amino)methyl)-6-(3-((1s,3R)-3-methyl-1-(4-methyl-4H-1,2,4-triazol-3-yl)cyclobutyl)phenyl)-4-(trifluoromethyl)-1,6-dihydro-7H-pyrrolo[2,3-c]pyridin-7-one] | <500 nM |
| < 50 nM | CCN(Cc1cc2c(C(F)(F)F)cn(-c3cccc([C@]4(c5nncn5C)C[C@@H](C)C4)c3)c(=O)c2[nH]1)C(C)C [Compound T159, 2-((ethyl(isopropyl)amino)methyl)-6-(3-((1s,3s)-3-methyl-1-(4-methyl-4H-1,2,4-triazol-3-yl)cyclobutyl)phenyl)-4-(trifluoromethyl)-1,6-dihydro-7H-pyrrolo[2,3-c]pyridin-7-one] | <500 nM |
| < 50 nM | CCCNCc1cc2c(C(F)(F)F)cn(-c3cccc(C4(c5nncn5C)CCC4)c3)c(=O)c2[nH]1 [Compound T160, 6-(3-(1-(4-methyl-4H-1,2,4-triazol-3-yl)cyclobutyl)phenyl)-2-((propylamino)methyl)-4-(trifluoromethyl)-1,6-dihydro-7H-pyrrolo[2,3-c]pyridin-7-one] | <500 nM |
| < 50 nM | Cn1cnnc1C1(c2cccc(-n3cc(C(F)(F)F)c4cc(CNC(C)(C)C)[nH]c4c3=O)c2)CCC1 [Compound T161, 2-((tert-butylamino)methyl)-6-(3-(1-(4-methyl-4H-1,2,4-triazol-3-yl)cyclobutyl)phenyl)-4-(trifluoromethyl)-1,6-dihydro-7H-pyrrolo[2,3-c]pyridin-7-one] | <500 nM |
| < 50 nM | Cn1cnnc1C1(c2cccc(-n3cc(C(F)(F)F)c4cc(CNCC(C)(C)C)[nH]c4c3=O)c2)CCC1 [Compound T162, 6-(3-(1-(4-methyl-4H-1,2,4-triazol-3-yl)cyclobutyl)phenyl)-2-((neopentylamino)methyl)-4-(trifluoromethyl)-1,6-di hydro-7H-pyrrolo[2,3-c]pyridin-7-one] | <500 nM |
| < 50 nM | CCN(Cc1cc2c(C(F)(F)F)cn(-c3cccc([C@]4(c5nncn5C)C[C@@H](OC)C4)c3)c(=O)c2[nH]1)C(C)C [Compound T192] | <500 nM |
